According to patent US11136615B2 (PROMEGA CORPORATION, priority 2017, dated 2021):

Assays:
Assay type in all cases: physicochemical
[1] = Thermal stability (T80) of Ultra-Glo™-based ATP detection reagent; conditions: 37° C.
Protocol: (FIG. 6). T80 (the storage time during which the complete ATP detection reagent produced ≥80% of the light output from the freshly made reagent), a parameter reflecting reagent thermal stability, was improved by 1 fold at 37° C. after addition of ATT. In particular, the T80 value in the absence of ATT (0 mM) was 4 days, whereas the T80 value in the presence of ATT (3 mM) was 8 days (FIG. 6A). Further, the combination of dehydroluciferin and ATT as additives further improved the reagent stability, increasing the T80 value to 18 days (FIG. 6B, at 3 mM ATT with 0.3 mM corresponding dehydro-compound).

[2] = Effect of ATT on pro-luciferin stability (RP-HPLC); conditions: 2-hydroxyethyl ester of luciferin methyl ether 1.0 mM, PBS pH 7.4, 5% DMSO, ATT 8.0 mM, 37° C., FIG. 4
Protocol: A stock solution of this compound in DMSO was added to PBS buffer at pH 7.4 to reach a final concentration at 1.0 mM and 5% DMSO. The mixture was incubated at 37° C., with or without ATT (Sigma, at a final concentration of 8.0 mM). Aliquots (20 μL) were taken out at various time points, diluted with H2O (180 μL), and analyzed by RP-HPLC. The percentages of the components were calculated based on UV absorbance at 330 nm.

[3] = Effect of ATT on pro-luciferin stability with or without TCEP (RP-HPLC); conditions: 2-hydroxyethyl ester of luciferin methyl ether 1.0 mM, PBS pH 7.4, 5% DMSO, ATT 8.0 mM, TCEP 10 mM, 37° C., FIG. 5
Protocol: ATT was also shown to be compatible with additives that are commonly used in bioluminescence systems. […] The mixture was incubated at 37° C., with or without ATT (Sigma, at a final concentration of 8.0 mM), and with or without TCEP (Thermo Scientific, at a final concentration of 10 mM).

[4] = Effect of ATT on luciferin stability (RP-HPLC); conditions: luciferins 1.0 mM, cationic detergent buffers pH 6.0, ATT 2.0 mM, 60° C., FIG. 3
Protocol: Representative luciferins were reconstituted (at final concentration of 1.0 mM) in buffers containing various cationic detergents at pH 6.0, with or without ATT (Sigma, at a final concentration of 2.0 mM). The mixture was incubated at 60° C. Aliquots (20 μL) were taken out at various time points, diluted with H2O (180 μL), and analyzed by RP-HPLC. The percentages of the components were calculated based on UV absorbance at 330 nm.

T80 (storage time with ≥80% of the light output of freshly made reagent) ([1]; ATT 3 mM in complete ATP detection reagent, 4 days in the absence of ATT, FIG. 6A): 8 days
improvement of T80 after addition of ATT ([1]; complete ATP detection reagent): 1 fold
decomposition of the pro-luciferin compound [2]: slowed down
formation of the corresponding dehydroluciferin derivative [2]: reduced
stability of the pro-luciferin compound in the presence of TCEP [3]: improved
dehydroluciferin formation [4]: reduced
luciferin thermal stability [4]: improved
SMILES: Cc1n[nH]c(=S)[nH]c1=O [ATT, 6-methyl-3-thioxo-3,4-dihydro-1,2,4-triazin-5(2H)-one]
